This note sets out measurements from patent US10351525B2, “Beta lactamase inhibitors” (Oxford University Innovation Limited, priority 2014, dated 2019).

Common to all, as to assay type: biochemical
Assay [1] concerns the target PBP5 (dacA) from E. coli (Escherichia coli, UniProt P0AEB2). Put plainly: Inhibition studies for penicillin binding proteins, PBP5. On Inhibition verdict: key: N.I.—not inhibited. As to conditions: for remaining activity at 100 µM: read-out: RA (residual activity). As for the experimental part: (§1) To investigate the selectivity of ML302/ML302F for bacterial MBLs, activity was tested against TEM-1 (a Class A SBL), PBP-5 (penicillin-binding protein 5 or dacA) and PBP-6 (penicillin-binding protein 6, or dacC) from E. coli, hHAT (human histone acetyltransferase) and hHDAC (human histone deacetylase). TEM-1, PBP-5 and -6 and hHAT are known to be inhibited by rhodanines. Selectively against hACE-2 (Angiotensin converting enzyme 2) and hHAGH (Hydroxyacylglutathione hydrolase, human Glyoxylase II) was also tested.
The inhibition analyses were performed using the method previously described for PBP-3 (van Berkel, S. S. et al. Binding of (5 S)-penicilloic acid to penicillin binding protein 3.ACS Chem. Biol. 8, 2112-2116 (2013)). In brief: ML302 and ML302F were initially screened at a single concentration (100 μM) in duplicate. Inhibition of the PBP acylation rate by the chromogenic β-lactam Nitrocefin was determined by pre-incubation of the appropriate amount of enzyme (dacA 2 μM and dacC 6.8 μM, respectively) and inhibitor in the assay buffer (50 mM HEPES-NaOH buffer (pH 7.2) supplemented with 200 mM NaCl and 0.01% Triton 100) for 10 min. at r.t. prior to the initiation of the assay by the addition of nitrocefin (100 μM final concentration). The hydrolysis of Nitrocefin was monitored by following the variation in absorbance at 492 nm using 96 well flat bottom plates (UV-STAR Microplate (655801) or Greiner Bio-One). The experiments were performed using a PHERAstar FS—BMG Labtech microplate reader (using path length correction) at r.t. (24-25° C.). All enzymes and inhibitors were prepared in the assay buffer.

The target of assay [2] is T1, hHAT (Homo sapiens, UniProt Q09472).
T1 construct: purchased Active Motif 56100
T1 sequence (Q09472 1284-1673 limits assumed): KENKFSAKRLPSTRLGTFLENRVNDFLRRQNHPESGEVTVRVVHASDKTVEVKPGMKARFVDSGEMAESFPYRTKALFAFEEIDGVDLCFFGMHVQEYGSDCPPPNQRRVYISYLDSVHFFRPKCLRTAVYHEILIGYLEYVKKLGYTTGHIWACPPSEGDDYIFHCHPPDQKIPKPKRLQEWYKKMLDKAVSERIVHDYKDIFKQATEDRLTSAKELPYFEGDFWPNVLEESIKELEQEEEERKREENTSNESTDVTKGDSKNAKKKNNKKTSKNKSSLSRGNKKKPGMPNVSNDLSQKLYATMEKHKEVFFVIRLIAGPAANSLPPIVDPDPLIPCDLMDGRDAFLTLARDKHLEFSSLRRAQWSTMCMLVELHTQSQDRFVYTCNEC
Put plainly: Inhibition studies hHAT (HAT Assay Kit). On Inhibition verdict: key: N.I.—not inhibited. As for the experimental part:
as §1
(§2) The inhibition analyses for human histone acetyltransferases (HAT), HDAC hHDAC (human histone deacetylase), hACE-2 (Angiotensin converting enzyme 2) and hHAGH (Hydroxyacylglutathione hydrolase, human Glyoxylase II) were performed using the commercially available HAT Assay Kit (Active Motif, catalogue No. 56100 (2009)), hHDAC (Active Motif, catalogue No. 56200 (2013)), hACE-2 (ACE-2 (R&D Systems) and hHAGH ((R&D Systems).

Assay [3] concerns the target T2, hGlyoxylase II (Homo sapiens, UniProt Q16775).
T2 construct: purchased R&D Systems 5944-GO
Put plainly: hHAGH (human Glyoxylase II) assay. On Inhibition verdict: key: N.I.—not inhibited. The method, then:
as §1, §2
• Assay Buffer: 50 mM Tris, 250 mM NaCl, pH 7.5 • Recombinant Human Glyoxalase II (rhGlyoxalase II) (Catalog #5944-GO) • Substrate: S-Lactoylglutathione (Sigma, Catalog # L7140), 100 mM stock in deionized water • 5, 5′-dithiobis(2-nitrobenzoic acid) (DTNB) (Sigma, Catalog # D8130), 10 mM stock in DMSO • 96-well Clear Plate (Costar, Catalog #92592) • Plate Reader (Model: SpectraMax Plus by Molecular Devices) or equivalent Assay: 1. Dilute rhGlyoxalase II to 0.4 ng/μL in Assay Buffer. 2. Dilute Substrate to 2 mM in Assay Buffer with 400 IJM DTNB to form Substrate Mixture. 3. Load 50 μL of 0.4 ng/μL rhGlyoxalase II into a plate and start the reaction by loading 50 μL of Substrate Mixture. Include a Substrate Blank containing 50 μL of Assay Buffer and 50 μL of Substrate Mixture. 4. Read at 405 nm (absorbance) in kinetic mode for 5 minutes. 5. Calculate specific activity:
[formula] [formula] [formula] [formula] Note: the output of many spectrophotometers is in mOD. Final Assay Conditions Per Well: rhGlyoxalase II: […] S-Lactoylglutathione: 1 mM DTNB: 200 μM

Sequence of PBP5 (dacA) from E. coli (P0AEB2 30-403): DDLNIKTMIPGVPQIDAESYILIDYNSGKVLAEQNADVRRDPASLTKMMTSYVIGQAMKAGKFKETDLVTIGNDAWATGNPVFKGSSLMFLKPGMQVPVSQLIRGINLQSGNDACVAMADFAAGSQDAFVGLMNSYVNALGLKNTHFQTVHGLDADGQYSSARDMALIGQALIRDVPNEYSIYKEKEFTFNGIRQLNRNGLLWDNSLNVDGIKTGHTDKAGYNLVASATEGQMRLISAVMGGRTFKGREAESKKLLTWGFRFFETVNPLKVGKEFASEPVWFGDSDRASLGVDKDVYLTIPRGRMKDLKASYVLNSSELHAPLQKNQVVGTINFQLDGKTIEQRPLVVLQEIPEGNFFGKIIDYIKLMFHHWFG

On to `CN1CCN(NC(=O)CN2C(=O)C(=Cc3c(Cl)ccc(Cl)c3Cl)SC2=S)CC1` (mixture of isomers) [ML302, N-(4-Methylpiperazin-1-yl)-2-(4-oxo-2-thioxo-5-(2,3,6-trichlorobenzylidene)thiazolidin-3-yl)acetamide], for which, in assay [1], the remaining activity at 100 µM is 105 ± 5.7%. Further, the Inhibition verdict entry in assay [2] and in assay [3] was “N.I” each time. In addition, the figures for the “RA (residual activity)” value in assay [2] and in assay [3] were 93 ± 15% and 98 ± 3%, respectively.
For `O=C(O)C(S)=Cc1c(Cl)ccc(Cl)c1Cl` (racemic) [ML302F, 2-Mercapto-3-(2,3,6-trichlorophenyl)acrylic acid], the Inhibition verdict entry in assay [1] (100 μM), in assay [2] and in assay [3] was “N.I” throughout. For the same compound, in assay [1], the remaining activity at 100 µM is 99.2 ± 6.4%. Besides, the “RA (residual activity)” value is 85 ± 9% in assay [2] and 95 ± 6% in assay [3].
